For data set [1], the system named is cucumber gray mold pathogen (Botrytis cinerea). Nature of the data set: Cucumber gray mold control test. The data set is classed as in vivo. The note with it: 96 h, read-out: control value.
For data set [2], the system named is apple scab pathogen (Venturia inaequalis). Kind of data set: Apple scab control test. The data set is classed as in vivo. The settings on record: 336 h, read-out: control value.
[3] abbreviates: emulsion sprayed at 100 ppm active ingredient onto cucumber seedlings (Sagami Hanjiro), lesions on leaves after 4 days vs untreated.
Where [4] appears, read: emulsion sprayed at 100 ppm active ingredient onto apple seedlings (Ralls Janet), lesions on leaves after 2 weeks vs untreated.

Where two headings read alike, the source gives them in different places.

By melting point is commonly meant the temperature of the solid-liquid transition. Turning to `CC1(C)COc2ccccc2C(c2cnc3ccccc3c2)=N1` [B1-3, 3,3-Dimethyl-5-(3-quinolinyl)-2,3-dihydro-benzo[f][1,4]oxazepine], the melting point lay within 109 to 112 °C. In data set [1] (setting [3]), the pest or weed control at 100 ppm was at least 75%. In addition, the pest or weed control at 100 ppm in data set [2] (setting [4]) is at least 75%.

As to `CC1(C)CN=C(c2cnc3ccccc3c2)c2ccccc2O1` [B1-9, 2,2-Dimethyl-5-(3-quinolinyl)-2,3-dihydro-benzo[f][1,4]oxazepine], the pest or weed control at 100 ppm in data set [1] (setting [3]) and in data set [2] (setting [4]) was at least 75% each time.

On to `CC1(C2CC2)CN=C(c2cnc3ccccc3c2)c2ccccc2O1` (centres unmarked) [B1-70, 2-Cyclopropyl-2-methyl-5-quinolin-3-yl-2,3-dihydro-benzo[f][1,4]oxazepine], for which the pest or weed control at 100 ppm in data set [1] (setting [3]) and in data set [2] (setting [4]) was at least 75% each time.

In turn, `c1ccc2c(c1)OC1(CC1)CN=C2c1cnc2ccccc2c1` [B1-72, 5-Quinolin-3-yl-2,3-dihydro-benzo[f][1,4]oxazepine-2-spiro-cyclopropane] had a melting point of 102 to 104 °C. Moreover, the pest or weed control at 100 ppm in data set [1] (setting [3]) was at least 75%.

On to `CC1(C)CN=C(c2cnc3ccccc3c2)c2cccc(Cc3ccccc3)c2O1` [B1-74, 9-Benzyl-2,2-dimethyl-5-quinolin-3-yl-2,3-dihydro-benzo[f][1,4]oxazepine], for which the pest or weed control at 100 ppm in data set [1] (setting [3]) is at least 75%.

Regarding `CC1(C)CN=C(c2cnc3ccccc3c2)c2cc(Cl)ccc2O1` [B1-77, 7-Chloro-2,2-dimethyl-5-quinolin-3-yl-2,3-dihydro-benzo[f][1,4]oxazepine], in data set [1] (setting [3]), the pest or weed control at 100 ppm is at least 75%.

On to `Cc1cccc2c1OC(C)(C)CN=C2c1cnc2c(F)cccc2c1` [B1-79, 5-(8-Fluoro-quinolin-3-yl)-2,2,9-trimethyl-2,3-dihydro-benzo[f][1,4]oxazepine], for which the melting point lay within 151 to 153 °C. Besides, the pest or weed control at 100 ppm in data set [1] (setting [3]) was at least 75%. The pest or weed control at 100 ppm in data set [2] (setting [4]) was at least 75%.

On to `CC1(C)CN=C(c2cnc3ccccc3c2)c2cccc(Oc3ccccc3)c2O1` [B1-82, 2,2-Dimethyl-9-phenoxy-5-quinolin-3-yl-2,3-dihydro-benzo[f][1,4]oxazepine], for which the pest or weed control at 100 ppm in data set [1] (setting [3]) and in data set [2] (setting [4]) was at least 75% throughout.

As for `O=C1COc2ccccc2C(c2cnc3ccccc3c2)=N1` [B1-84, 5-Quinolin-3-yl-benzo[f][1,4]oxazepin-3-one], the melting point was in the range of 169 to 170 °C. In addition, the pest or weed control at 100 ppm in data set [1] (setting [3]) is at least 75%.

For the molecule `CC1(C)CN=C(c2cnc3ccccc3c2)c2ccccc2S1` [B2-6, 2,2-Dimethyl-5-(3-quinolinyl)-2,3-dihydro-benzo[f][1,4]thiazepine], the pest or weed control at 100 ppm in data set [1] (setting [3]) and in data set [2] (setting [4]) was at least 75% throughout.

As for `CC1(C)CN(Cc2ccccc2)C(c2cnc3c(F)cccc3c2)c2cccc(Cl)c2O1` (centres unmarked) [B4-50, 4-Benzyl-9-chloro-5-(8-fluoro-quinolin-3-yl)-2,2-dimethyl-2,3,4,5-tetrahydro-benzo[f][1,4]oxazepine], the melting point was 138 to 141 °C. Besides, the pest or weed control at 100 ppm in data set [1] (setting [3]) was at least 75%.

Take `CC1(C)C[N+]([O-])=C(c2cnc3c(F)cccc3c2)c2ccccc2O1` [B5-34, 5-(8-Fluoro-quinolin-3-yl)-2,2-dimethyl-2,3-dihydro-benzo[f][1,4]oxazepine 4-oxide]: the pest or weed control at 100 ppm in data set [1] (setting [3]) and in data set [2] (setting [4]) was at least 75% each time.

As to `CC1(C)CN2OC2(c2cnc3c(F)cccc3c2)c2ccccc2O1` (centres unmarked) [B6-34, 8b-(8-Fluoro-quinolin-3-yl)-3,3-dimethyl-2,3-dihydro-8bH-1,4-dioxa-1a-aza-benzo[a]cyclopropa[c]cycloheptene], the pest or weed control at 100 ppm in data set [1] and in data set [2] was at least 75% each time.

The values are drawn from US8557738B2, “Nitrogen-containing heterocyclic derivative and fungicide for agricultural and horticultural use” (Nippon Soda Co., Ltd., priority 2008, dated 2013).
